# According to US20240368113A1, “AMIDE COMPOUND AND USE THEREOF” (Chengdu Fendi Pharmaceutical Co. Ltd., priority 2021, published 2024):
# System: MV-4-11 cells
# Assay: Inhibition of tumor cell proliferation (CellTiter-Glo)
# Assay type: cell-based
# Conditions: Homo sapiens, MV4-11, 72 h, read-out: IC50 of inhibitory activity of tumor cell proliferation
# Experimental: MV-4-11 cells were diluted with medium (RPM1640+10% FBS+1% PS) and plated at 4000 cells/well in a white-walled clear-bottom 96-well plate. MV-4-11 cells were plated and incubated in a 5% CO2, 37° C. incubator for 2 hours. Cells were treated with the indicated concentration of compound or DMSO (control), and placed in a 5% CO2, 37° C. incubator for 72 h after dosing. After the end of the culture, equilibrate at room temperature for 30 min, add 100 μl of CellTiter-Glo® Reagent to each well, and shake the microplate shaker for 2 min. After 10 min of incubation at room temperature, the luminescence was measured by a microplate reader, and the cell-free wells were used as the background wells. CC-90009 (celegen patent phase I) was used as a control, and its structural formula was as follows: 0
row,Structure (SMILES),IC50
1,CC1(C)COP(=O)(Oc2ccccc2C#CC(=O)NCc2ccc3c(c2)CN(C2CCC(=O)NC2=O)C3=O)OC1 (stereo not shown) [Compound 97],1 to 10 nM
2,O=C(C#Cc1ccc(OP(=O)(Oc2ccccc2)Oc2ccccc2)cc1)NCc1ccc2c(c1)CN(C1CCC(=O)NC1=O)C2=O (stereo not shown) [Compound 81],< 1 nM

# Same assay, conditions: Homo sapiens, MV4-11; MV-4-11 cells, 72 h, CellTiter-Glo; read-out: IC50 of inhibitory activity of tumor cell proliferation
row,Structure (SMILES),IC50
1,O=C(C#Cc1ccc(F)cc1F)NCc1ccc2c(c1)CN(C1CCC(=O)NC1=O)C2=O (stereo not shown) [Compound 10],< 1 nM
2,Cc1c(C#CC(=O)NCc2ccc3c(c2)CN(C2CCC(=O)NC2=O)C3=O)cccc1C(=O)O (stereo not shown) [Compound 92],> 100 nM
3,O=C(/C=C/c1ccccc1)NCc1ccc2c(c1)CN(C1CCC(=O)NC1=O)C2=O (stereo not shown) [Compound 15],1 to 10 nM
4,CC(C)(C)OC(=O)N1CCCCC1C#CC(=O)NCc1ccc2c(c1)CN(C1CCC(=O)NC1=O)C2=O (stereo not shown) [Compound 63],< 1 nM
5,Cn1cnc2cc(C#CC(=O)NCc3ccc4c(c3)CN(C3CCC(=O)NC3=O)C4=O)ccc21 (stereo not shown) [Compound 131],1 to 10 nM
6,O=C(C#Cc1ccc2ncsc2c1)NCc1ccc2c(c1)CN(C1CCC(=O)NC1=O)C2=O (stereo not shown) [Compound 120],1 to 10 nM
7,O=C(O)CCC(=O)Oc1ccc(C#CC(=O)NCc2ccc3c(c2)CN(C2CCC(=O)NC2=O)C3=O)cc1 (stereo not shown) [Compound 86],10 to 100 nM
8,O=C(C#Cc1ccc(Cl)nc1)NCc1ccc2c(c1)CN(C1CCC(=O)NC1=O)C2=O (stereo not shown) [Compound 59],10 to 100 nM
9,Cc1ccc(C#CC(=O)NCc2ccc3c(c2)CN(C2CCC(=O)NC2=O)C3=O)cc1N (stereo not shown) [Compound 52],< 1 nM
10,Nc1cc(C#CC(=O)NCc2ccc3c(c2)CN(C2CCC(=O)NC2=O)C3=O)ccc1F (stereo not shown) [Compound 54],< 1 nM
11,O=C(C#Cc1ccc2[nH]ccc2c1)NCc1ccc2c(c1)CN(C1CCC(=O)NC1=O)C2=O (stereo not shown) [Compound 108],1 to 10 nM
12,CCCC(=O)OCOC(=O)c1cccc(C#CC(=O)NCc2ccc3c(c2)CN(C2CCC(=O)NC2=O)C3=O)c1 (stereo not shown) [Compound 95],> 100 nM
13,O=C(C#Cc1cnccn1)NCc1ccc2c(c1)CN(C1CCC(=O)NC1=O)C2=O (stereo not shown) [Compound 37],> 100 nM
14,O=C(C#Cc1ccc2[nH]ncc2c1F)NCc1ccc2c(c1)CN(C1CCC(=O)NC1=O)C2=O (stereo not shown) [Compound 130],1 to 10 nM
15,O=C(C#CC1CC1)NCc1ccc2c(c1)CN(C1CCC(=O)NC1=O)C2=O (stereo not shown) [Compound 61],> 100 nM
16,Cc1ccnc(Cl)c1C#CC(=O)NCc1ccc2c(c1)CN(C1CCC(=O)NC1=O)C2=O (stereo not shown) [Compound 67],1 to 10 nM
17,O=C(C#Cc1c(O)cccc1Cl)NCc1ccc2c(c1)CN(C1CCC(=O)NC1=O)C2=O (stereo not shown) [Compound 65],1 to 10 nM
18,O=C(C#CCO)NCc1ccc2c(c1)CN(C1CCC(=O)NC1=O)C2=O (stereo not shown) [Compound 22],> 100 nM
19,Nc1ccc(C#CC(=O)NCc2ccc3c(c2)CN(C2CCC(=O)NC2=O)C3=O)cc1 (stereo not shown) [Compound 124],10 to 100 nM
20,O=C(C#Cc1nc2ccccc2s1)NCc1ccc2c(c1)CN(C1CCC(=O)NC1=O)C2=O (stereo not shown) [Compound 106],10 to 100 nM
21,C[Si](C)(C)C#CC(=O)NCc1ccc2c(c1)CN(C1CCC(=O)NC1=O)C2=O (stereo not shown) [Compound 20],> 100 nM
22,O=C(C#Cc1ccccc1Cl)NCc1ccc2c(c1)CN(C1CCC(=O)NC1=O)C2=O (stereo not shown) [Compound 8],< 1 nM
23,O=C(O)CCC(=O)Oc1ccccc1C#CC(=O)NCc1ccc2c(c1)CN(C1CCC(=O)NC1=O)C2=O (stereo not shown) [Compound 88],1 to 10 nM
24,O=C(C#Cc1ccc(O)cc1Cl)NCc1ccc2c(c1)CN(C1CCC(=O)NC1=O)C2=O (stereo not shown) [Compound 109],1 to 10 nM
25,O=C(C#Cc1cnc(Cl)cc1Cl)NCc1ccc2c(c1)CN(C1CCC(=O)NC1=O)C2=O (stereo not shown) [Compound 39],1 to 10 nM
26,O=C(C#Cc1c(F)cccc1F)NCc1ccc2c(c1)CN(C1CCC(=O)NC1=O)C2=O (stereo not shown) [Compound 9],< 1 nM
27,O=C(C#Cc1ccc(F)nc1)NCc1ccc2c(c1)CN(C1CCC(=O)NC1=O)C2=O (stereo not shown) [Compound 38],1 to 10 nM

row,Structure (SMILES),IC50
1,O=C(C#CC1CCCCN1)NCc1ccc2c(c1)CN(C1CCC(=O)NC1=O)C2=O (stereo not shown) [Compound 64],> 100 nM
2,O=C1CCC(N2Cc3cc(CNC(=O)/C(F)=C/c4cccc(F)c4)ccc3C2=O)C(=O)N1 (stereo not shown) [Compound 14],> 100 nM
3,O=C(C#Cc1ccc(F)c([N+](=O)[O-])c1)NCc1ccc2c(c1)CN(C1CCC(=O)NC1=O)C2=O (stereo not shown) [Compound 53],10 to 100 nM
4,Cc1cccc(C#CC(=O)NCc2ccc3c(c2)CN(C2CCC(=O)NC2=O)C3=O)c1O (stereo not shown) [Compound 113],< 1 nM
5,Cc1ccc(C#CC(=O)NCc2ccc3c(c2)CN(C2CCC(=O)NC2=O)C3=O)s1 (stereo not shown) [Compound 36],< 1 nM
6,O=C(C#Cc1ccc2nccn2c1)NCc1ccc2c(c1)CN(C1CCC(=O)NC1=O)C2=O (stereo not shown) [Compound 45],> 100 nM
7,O=C(C#Cc1c(Cl)ccnc1Cl)NCc1ccc2c(c1)CN(C1CCC(=O)NC1=O)C2=O (stereo not shown) [Compound 66],1 to 10 nM
8,O=C(C#Cc1ccc(C(=O)O)cc1Cl)NCc1ccc2c(c1)CN(C1CCC(=O)NC1=O)C2=O (stereo not shown) [Compound 103],10 to 100 nM
9,O=C(C#Cc1ccc(F)cc1[N+](=O)[O-])NCc1ccc2c(c1)CN(C1CCC(=O)NC1=O)C2=O (stereo not shown) [Compound 49],1 to 10 nM
10,O=C(C#CC(O)c1ccccc1)NCc1ccc2c(c1)CN(C1CCC(=O)NC1=O)C2=O (stereo not shown) [Compound 115],> 100 nM
11,CC(C)(C)OC(=O)c1cccc(C#CC(=O)NCc2ccc3c(c2)CN(C2CCC(=O)NC2=O)C3=O)c1 (stereo not shown) [Compound 70],< 1 nM
12,O=C(C#Cc1ccc(O)c(Cl)c1)NCc1ccc2c(c1)CN(C1CCC(=O)NC1=O)C2=O (stereo not shown) [Compound 101],10 to 100 nM
13,Cc1c(O)cccc1C#CC(=O)NCc1ccc2c(c1)CN(C1CCC(=O)NC1=O)C2=O (stereo not shown) [Compound 114],1 to 10 nM
14,O=C(C#Cc1cc(Cl)c(O)c(Cl)c1)NCc1ccc2c(c1)CN(C1CCC(=O)NC1=O)C2=O (stereo not shown) [Compound 100],> 100 nM
15,O=C(C#Cc1ccc(F)cc1)NCc1ccc2c(c1)CN(C1CCC(=O)NC1=O)C2=O (stereo not shown) [Compound 3],< 1 nM
16,N#Cc1ccc(C#CC(=O)NCc2ccc3c(c2)CN(C2CCC(=O)NC2=O)C3=O)cn1 (stereo not shown) [Compound 42],> 100 nM
17,O=C(C#Cc1ccc([N+](=O)[O-])cc1F)NCc1ccc2c(c1)CN(C1CCC(=O)NC1=O)C2=O (stereo not shown) [Compound 47],> 100 nM
18,Cn1cnc2ccc(C#CC(=O)NCc3ccc4c(c3)CN(C3CCC(=O)NC3=O)C4=O)cc21 (stereo not shown) [Compound 132],10 to 100 nM
19,O=C(C#Cc1ccc(Cl)cc1C(=O)O)NCc1ccc2c(c1)CN(C1CCC(=O)NC1=O)C2=O (stereo not shown) [Compound 90],> 100 nM
20,CC(C)(C)C(=O)OCOC(=O)c1cccc(C#CC(=O)NCc2ccc3c(c2)CN(C2CCC(=O)NC2=O)C3=O)c1 (stereo not shown) [Compound 78],> 100 nM
21,O=C(C#Cc1coc2ccccc12)NCc1ccc2c(c1)CN(C1CCC(=O)NC1=O)C2=O (stereo not shown) [Compound 99],< 1 nM
22,O=C(C#CCN1CCCC1)NCc1ccc2c(c1)CN(C1CCC(=O)NC1=O)C2=O (stereo not shown) [Compound 125],> 100 nM
23,O=C(C#Cc1cccc(Br)c1)NCc1ccc2c(c1)CN(C1CCC(=O)NC1=O)C2=O (stereo not shown) [Compound 18],< 1 nM
24,O=C(C#Cc1ccc(F)nc1F)NCc1ccc2c(c1)CN(C1CCC(=O)NC1=O)C2=O (stereo not shown) [Compound 41],1 to 10 nM
25,Cc1ccc(C#CC(=O)NCc2ccc3c(c2)CN(C2CCC(=O)NC2=O)C3=O)nc1 (stereo not shown) [Compound 28],1 to 10 nM
26,O=C(C#Cc1cccnc1)NCc1ccc2c(c1)CN(C1CCC(=O)NC1=O)C2=O (stereo not shown) [Compound 16],10 to 100 nM
